According to US12194050B2, “Thiadiazine derivatives” (RICHTER GEDEON NYRT., priority 2018, dated 2025):

The compounds below were run against human α7 nAchR (Homo sapiens (Human), UniProt P36544) (assay: Human α7 nicotinic acetylcholine receptor [Ca2+]i assay (PAM, Ca2+ fluorometry)). Details: Flp-In 293 cells expressing human α7 nAchR and human RIC-3; in presence of saturating agonist (mostly PNU-282987, 1 μM).
Type: cell-based
Procedure: Biological Activity Human α7 Nicotinic Acetylcholine Receptor [Ca^2+]i Assay
Cells: Flp-In 293 cells stably expressing human α7 nAchR and human RIC-3 (α7 cells, generated in house.)
Materials: 96-well plates coated with PDL (Falcon), culture medium, assay buffer, DMSO, FLIPR Calcium 5 kit (Molecular Devices), probenecid, agonist and PAM test compounds.
Brief Description of the Method (Ca^2+ Fluorometry)
α7 cells stably expressing human α7 nAchR were cultured in the medium detailed above, and were split twice a week. For the fluorometric measurements of cytosolic Ca^2+ ion concentration ([Ca^2+]i) cells were seeded in 96-well microplates at a density of 60000 cells/well and maintained overnight in a tissue culture incubator at 37° C. under an atmosphere of 95% air/5% CO2. The plating medium was identical with the culture medium. 50 μl of the growth medium was aspirated with a cell washer (BioTek Elx405UCVWS). Then 50 μl/well Calcium 5 kit diluted 2-fold in assay buffer was added manually using an 8-channel pipette. After an incubation period (20 minutes, 37° C.) 50 μl/well assay buffer containing vehicle (DMSO, 4% added) or reference α7 PAMs (4×of the final concentration) were added manually and the cells were incubated for an additional 10 minutes at 37° C. Baseline and agonist-evoked [Ca2+]i-changes were monitored with FlexStation II (Molecular Devices, Sunnyvale, Calif.), a plate reader fluorometer with integrated 8-channel fluid addition capability. Fluorescence measurements were carried out at 37° C. The dye was excited at 485 nm, emission was sampled at 525 nm at 1.4-s intervals. Baseline was recorded for 20 seconds followed by agonist stimulation. 50 μl 4× concentrated agonist solution was added to the cells using the pipettor of FlexStation II and fluorescence was monitored for an additional 40 seconds. Final DMSO concentration was 1% for all treatments. To achieve this, a series of DMSO stock solutions were prepared from all test compounds. These stocks were stored under 0° C. and were further diluted in assay buffer to obtain the desired final concentration immediately before the measurement. Agonist and PAM concentration-response studies were conducted in the presence of saturating concentrations of PAMs (mostly PNU-120596, 5 μM) and agonists (mostly PNU-282987, 1 μM), respectively. Results were expressed as ΔF/F values using SoftMax Pro software (Molecular Devices), where F was the resting fluorescence preceding agonist application and ΔF was the increase in fluorescence at a given time (ΔF=maximum fluorescence intensity values after stimulation minus average fluorescence intensity values before stimulation). In all experiments, all treatments were measured in multiple wells in parallel, and the mean ΔF/F values were used for analysis.

Sequence of human α7 nAchR (P36544 23-502): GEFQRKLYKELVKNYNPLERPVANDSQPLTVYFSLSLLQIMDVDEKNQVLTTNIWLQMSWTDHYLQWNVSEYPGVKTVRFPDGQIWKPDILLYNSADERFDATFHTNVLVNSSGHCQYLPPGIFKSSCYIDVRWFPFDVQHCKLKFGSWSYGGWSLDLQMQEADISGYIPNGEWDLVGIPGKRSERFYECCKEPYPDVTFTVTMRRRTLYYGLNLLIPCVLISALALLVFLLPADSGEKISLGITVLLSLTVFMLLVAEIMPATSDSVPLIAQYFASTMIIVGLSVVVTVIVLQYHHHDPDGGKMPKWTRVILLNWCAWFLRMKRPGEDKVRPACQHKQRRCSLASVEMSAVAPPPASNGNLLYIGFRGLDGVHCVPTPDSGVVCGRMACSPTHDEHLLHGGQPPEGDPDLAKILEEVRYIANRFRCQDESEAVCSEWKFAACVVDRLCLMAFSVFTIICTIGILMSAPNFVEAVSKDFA

Row | SMILES | EC50 [nM]
1 | CCN1C(C(=O)Nc2cccc(F)n2)=CC(C2CCC(F)(F)CC2)=NS1(=O)=O [Example 70] | 620
2 | CCN1C(C(=O)Nc2cccc(F)n2)=CC([C@H]2CC3C[C@@H]3C2)=NS1(=O)=O (stereo partly shown) [Example 72] | 430
3 | CCN1C(C(=O)Nc2cccc(C(F)(F)F)n2)=CC(C2CCCCC2)=NS1(=O)=O [Example 73] | 390
4 | CCN1C(C(=O)Nc2cccc(F)n2)=CC(C2CCCCC2)=NS1(=O)=O [Example 74] | 1100
5 | CCN1C(C(=O)Nc2cccc(C(F)(F)F)n2)=CC(C2CC=CC2)=NS1(=O)=O [Example 75] | 960
6 | CCN1C(C(=O)Nc2ccc(F)c(C)n2)=CC([C@H]2CC[C@H](C(F)(F)F)CC2)=NS1(=O)=O [Example 77] | 1500
7 | CCN1C(C(=O)Nc2cccc(C(C)(F)F)n2)=CC([C@H]2CC[C@H](C(F)(F)F)CC2)=NS1(=O)=O [Example 78] | 790
8 | CCN1C(C(=O)Nc2ccnc(F)n2)=CC([C@H]2CC[C@H](C(F)(F)F)CC2)=NS1(=O)=O [Example 79] | 320
9 | CCN1C(C(=O)Nc2cccc(C(F)F)n2)=CC([C@H]2CC[C@H](C(F)(F)F)CC2)=NS1(=O)=O [Example 80] | 350
10 | CCCn1ccc(NC(=O)C2=CC(c3ccc(OC)c(OC)c3)=NS(=O)(=O)N2C)n1 [Example 85, 5-(3,4-dimethoxyphenyl)-2-methyl-1,1-dioxo-N-(1-propyl-1H-pyrazol-3-yl)-2H-1λ^6,2,6-thiadiazine-3-carboxamide] | 2000
11 | CCCCn1cc(NC(=O)C2=CC(c3ccc(OC)c(OC)c3)=NS(=O)(=O)N2C)cn1 [Example 86, N-(1-butyl-1H-pyrazol-4-yl)-5-(3,4-dimethoxyphenyl)-2-methyl-1,1-dioxo-2H-1λ^6,2,6-thiadiazine-3-carboxamide] | 2900
12 | CCN1C(C(=O)Nc2ccnc(C(F)(F)F)c2)=CC([C@H]2CC[C@H](C(F)(F)F)CC2)=NS1(=O)=O [Example 88] | 1400
13 | COc1ccc(C2=NS(=O)(=O)N(C(C)C)C(C(=O)Nc3cccc(Nc4cccc(F)n4)n3)=C2)cc1OC [Example 90] | 1200
14 | CCCN1C(C(=O)Nc2cccc(C(F)(F)F)c2)=CC(c2cc(OC)c(OC)cc2F)=NS1(=O)=O [Example 96] | 330
15 | COc1ccc(C2=NS(=O)(=O)N(CC3CC3)C(C(=O)Nc3cccc(C(F)(F)F)c3)=C2)cc1OC [Example 102] | 320
16 | COc1ccc(C2=NS(=O)(=O)N(CC3CC3)C(C(=O)Nc3cccc(Cl)c3)=C2)cc1OC [Example 104] | 370
17 | COc1ccc(NC(=O)C2=CC(c3ccc(OC)c(OC)c3)=NS(=O)(=O)N2C(C)C)cc1 [Example 108] | 1300
18 | COc1ccc(C2=NS(=O)(=O)N(C(C)C)C(C(=O)Nc3cc(Cl)ccn3)=C2)cc1OC [Example 110] | 640
19 | CCCN1C(C(=O)Nc2cccc(Cl)c2)=CC(c2ccc(OC)c(OC)c2)=NS1(=O)=O [Example 114] | 380
20 | COc1ccc(C2=NS(=O)(=O)N(CC(F)(F)F)C(C(=O)Nc3cccc(C(F)(F)F)c3)=C2)cc1OC [Example 118] | 530
21 | COc1ccc(C2=NS(=O)(=O)N(CC(F)(F)F)C(C(=O)Nc3cccc(C)c3)=C2)cc1OC [Example 119] | 380

The next compounds have a lower EC50 than those just listed; values first:

Row | EC50 [nM] | SMILES
22 | 310 | COc1ccc(C2=NS(=O)(=O)N([C@H]3CCOC3)C(C(=O)Nc3cccc(C(F)(F)F)n3)=C2)cc1OC [Example 83]
23 | 290 | COc1ccc(C2=NS(=O)(=O)N(C(C)C)C(C(=O)Nc3cccc(C(F)(F)F)c3)=C2)cc1OC [Example 89]
24 | 290 | COc1ccc(C2=NS(=O)(=O)N(C(C)C)C(C(=O)Nc3cccc(Cl)c3)=C2)cc1OC [Example 92]
25 | 220 | C=CCN1C(C(=O)Nc2cccc(C(F)(F)F)c2)=CC(c2ccc(OC)c(OC)c2)=NS1(=O)=O [Example 121]
26 | 200 | CCCCN1C(C(=O)Nc2cccc(C(F)(F)F)c2)=CC(c2ccc(OC)c(OC)c2)=NS1(=O)=O [Example 111]
27 | 150 | CCCN1C(C(=O)Nc2cccc(C(F)(F)F)c2)=CC(c2ccc(OC)c(Cl)c2)=NS1(=O)=O [Example 100]
28 | 140 | CCN1C(C(=O)Nc2cccc(C(F)(F)F)n2)=CC([C@H]2CC3C[C@@H]3C2)=NS1(=O)=O (stereo partly shown) [Example 71]
29 | 130 | COc1ccc(C2=NS(=O)(=O)N([C@@H]3CCOC3)C(C(=O)Nc3cccc(C(F)(F)F)n3)=C2)cc1OC [Example 84]
30 | 120 | CC[C@@H](C)N1C(C(=O)Nc2cccc(C(F)(F)F)n2)=CC(c2ccc(OC)c(OC)c2)=NS1(=O)=O [Example 81]
31 | 120 | CC[C@H](C)N1C(C(=O)Nc2cccc(C(F)(F)F)n2)=CC(c2ccc(OC)c(OC)c2)=NS1(=O)=O [Example 82]
32 | 120 | CC(C)N1C(C(=O)Nc2cccc(C(F)(F)F)n2)=CC([C@H]2CC[C@H](C(F)(F)F)CC2)=NS1(=O)=O [Example 93]
33 | 120 | COc1ccc(C2=NS(=O)(=O)N(CC3CC3)C(C(=O)Nc3cccc(C(F)(F)F)c3)=C2)cc1C [Example 105]
34 | 120 | C=CCN1C(C(=O)Nc2ccc(OC)cc2)=CC(c2ccc(OC)c(OC)c2)=NS1(=O)=O [Example 120]
35 | 110 | COc1ccc(C2=NS(=O)(=O)N(CC3CC3)C(C(=O)Nc3cccc(C(F)(F)F)n3)=C2)cc1OC [Example 103]
36 | 110 | COc1ccc(C2=NS(=O)(=O)N(CC3CC3)C(C(=O)Nc3cccc(C)c3)=C2)cc1OC [Example 117]
37 | 100 | CCCN1C(C(=O)Nc2cccc(C(F)(F)F)c2)=CC(c2ccc(OC)c(C)c2)=NS1(=O)=O [Example 98]
38 | 100 | COc1ccc(NC(=O)C2=CC(c3ccc(OC)c(OC)c3)=NS(=O)(=O)N2CC2CC2)cc1 [Example 116]
39 | 85 | CCN1C(C(=O)Nc2cccc(C#N)n2)=CC([C@H]2CC[C@H](C(F)(F)F)CC2)=NS1(=O)=O [Example 76]
40 | 85 | CCCN1C(C(=O)Nc2cccc(C(F)(F)F)c2)=CC(c2ccc(OC)c(C(F)(F)F)c2)=NS1(=O)=O [Example 115]
41 | 80 | CCCN1C(C(=O)Nc2cccc(C)c2)=CC(c2ccc(OC)c(OC)c2)=NS1(=O)=O [Example 113]
42 | 75 | CCCN1C(C(=O)Nc2ccc(OC)cc2)=CC(c2ccc(OC)c(OC)c2)=NS1(=O)=O [Example 112]
43 | 70 | O=C(Nc1cccc(C(F)(F)F)n1)C1=CC([C@H]2CC[C@H](C(F)(F)F)CC2)=NS(=O)(=O)N1CC1CC1 [Example 106]
44 | 65 | CCCN1C(C(=O)Nc2cccc(C(F)(F)F)n2)=CC(c2ccc(OC)c(Cl)c2)=NS1(=O)=O [Example 101]
45 | 55 | C=CCN1C(C(=O)Nc2cccc(C(F)(F)F)n2)=CC(c2ccc(OC)c(OC)c2)=NS1(=O)=O [Example 107]
46 | 45 | CCCN1C(C(=O)Nc2cccc(C(F)(F)F)n2)=CC(c2ccc(OC)c(OC)c2)=NS1(=O)=O [Example 95]
47 | 40 | CCCN1C(C(=O)Nc2cccc(C(F)(F)F)n2)=CC(c2ccc(OC)c(C)c2)=NS1(=O)=O [Example 99]
48 | 30 | CCCN1C(C(=O)Nc2cccc(C(F)(F)F)n2)=CC(c2ccc(OC)c(C(F)(F)F)c2)=NS1(=O)=O [Example 97]
49 | 10 | CCN1C(C(=O)Nc2cccc(C(F)(F)F)n2)=CC(c2ccc(OC)c(C(F)(F)F)c2)=NS1(=O)=O [Example 87, 2-ethyl-5-[4-methoxy-3-(trifluoromethyl)phenyl]-1,1-dioxo-N-[6-(trifluoromethyl)pyridin-2-yl]-2H-1λ^6,2,6-thiadiazine-3-carboxamide]
